Literature values in patent publication US20060079683A1, “Arylthiobenzylpiperidine derivatives” (priority 2004, published 2006).

Legend:
Details in all cases: B. Borowsky, et al., Nature Medicine, 2002
MCH1 receptor [1] = target: T1, MCH1 receptor (Rattus norvegicus, UniProt P97639)
T1 construct: host or cells: living rat, endogenous receptor

MCH1 receptor [2] = target: T1, MCH1 receptor; remark: listed apart in the source
MCH1 receptor [3] = target: T2, MCH1 receptor (Cavia porcellus, UniProt H0VKT7)
T2 construct: host or cells: living guinea pig, endogenous receptor
T2 sequence (H0VKT7 1-355): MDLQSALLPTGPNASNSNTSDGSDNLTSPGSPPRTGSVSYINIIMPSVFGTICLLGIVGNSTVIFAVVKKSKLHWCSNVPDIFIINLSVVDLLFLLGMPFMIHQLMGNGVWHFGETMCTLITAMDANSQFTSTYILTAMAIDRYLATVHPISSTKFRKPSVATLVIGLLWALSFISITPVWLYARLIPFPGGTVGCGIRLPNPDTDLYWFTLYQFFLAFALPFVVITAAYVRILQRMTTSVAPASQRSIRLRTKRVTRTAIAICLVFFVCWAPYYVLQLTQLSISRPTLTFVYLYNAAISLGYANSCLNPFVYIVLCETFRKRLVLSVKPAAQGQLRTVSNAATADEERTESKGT

T1 sequence (P97639 whole entry): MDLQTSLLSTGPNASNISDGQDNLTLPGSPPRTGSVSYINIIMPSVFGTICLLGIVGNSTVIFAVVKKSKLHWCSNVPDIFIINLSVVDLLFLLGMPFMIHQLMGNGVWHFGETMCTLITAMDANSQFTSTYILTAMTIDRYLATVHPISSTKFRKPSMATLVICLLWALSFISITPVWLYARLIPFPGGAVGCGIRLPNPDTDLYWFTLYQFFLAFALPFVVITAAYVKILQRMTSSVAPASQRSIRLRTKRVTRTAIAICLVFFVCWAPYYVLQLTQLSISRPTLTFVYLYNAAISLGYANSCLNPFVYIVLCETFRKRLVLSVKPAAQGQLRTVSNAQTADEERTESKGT

COCC1=C(C(=O)OC)[C@H](c2ccc(F)c(F)c2)N(C(=O)NCCCN2CCC(c3cccc(NC(C)=O)c3)CC2)C(=O)N1 [SNAP-7941]
profile in behavioral model of depression and/or anxiety: rat forced-swim (MCH1 receptor [1]): profile similar to clinically used anti-depressants and anxiolytics | profile in behavioral model of depression and/or anxiety: rat social interaction (MCH1 receptor [2]): profile similar to clinically used anti-depressants and anxiolytics | profile in behavioral model of depression and/or anxiety: guinea pig maternal-separation vocalization (MCH1 receptor [3]): profile similar to clinically used anti-depressants and anxiolytics
